This is an account of results in patent US7569568B2, “Cytokine inhibitors” (Boehringer Ingelheim Pharmaceuticals, Inc., priority 2002, dated 2009).

The structures appear in SMILES notation.

In general, melting point refers to the temperature of the solid-liquid transition. Take `COC(=O)c1cn(-c2cc(C(=O)Nc3cc(C(C)(C)C)cc(NS(C)(=O)=O)c3OC)ccc2C)nn1` [Example 1, 1-[5-(5-tert-butyl-3-methanesulfonylamino-2-methoxy-phenylcarbamoyl)-2-methyl-phenyl]-1H-1,2,3-triazole-4-carboxylic acid methyl ester]: the melting point is 198 °C.
Consider `COC(=O)c1cn(-c2cc(C(=O)Nc3cc(C(C)(C)C)cc(NS(C)(=O)=O)c3OC)ccc2Cl)nn1` [Example 8, 1-[5-(5-tert-butyl-3-methanesulfonylamino-2-methoxyphenyl-carbamoyl)-2-chloro-phenyl]-1H-1,2,3-triazole-4-carboxylic acid methyl ester], for which the melting point was 251 to 252 °C (dec.).
In turn, `COC(=O)c1nnn(-c2cc(C(=O)Nc3cc(C(C)(C)C)cc(NS(C)(=O)=O)c3OC)ccc2C)c1N` [Example 9, 5-amino-1-[5-(5-tert-butyl-3-methanesulfonylamino-2-methoxy-phenylcarbamoyl)-2-methyl-phenyl]-1H-1,2,3-triazole-4-carboxylic acid methyl ester] yielded a melting point of 204 to 205 °C.
The molecule `COC(=O)c1cn(-c2cc(C(=O)Nc3cc(C(C)(C)C)cc(NS(C)(=O)=O)c3OC)cc(C)c2C)nn1` [Example 16, 1-[5-(5-tert-butyl-3-methanesulfonylamino-2-methoxy-phenylcarbamoyl)-2,3-dimethyl-phenyl]-1H-1,2,3-triazole-4-carboxylic acid methyl ester] gave a melting point of 199 °C.
`COc1c(NC(=O)c2ccc(C)c(-n3cc(C(=O)NCc4ccccc4)nn3)c2)cc(C(C)(C)C)cc1NS(C)(=O)=O` [Example 24, 1-[5-(5-tert-butyl-3-methanesulfonylamino-2-methoxy-phenylcarbamoyl)-2-methyl-phenyl]-1H-1,2,3-triazole-4-carboxylic acid benzylamide] showed a melting point of 205 to 207 °C.
Consider `COc1c(NC(=O)c2cc(C)c(C)c(-n3cc(C(=O)NCCN4CCOCC4)nn3)c2)cc(C(C)(C)C)cc1NS(C)(=O)=O` [Example 28, 1-[5-(5-tert-butyl-3-methanesulfonylamino-2-methoxy-phenylcarbamoyl)-2,3-dimethyl-phenyl]-1H-1,2,3-triazole-4-carboxylic acid (2-morpholin-4-yl-ethyl)-amide], for which the melting point was 206 to 209 °C (dec.).
Molecule `COc1c(NC(=O)c2ccc(C)c(-n3cc(C(N)=O)nn3)c2)cc(C(C)(C)C)cc1NS(C)(=O)=O` [Example 66, 1-[5-(5-tert-butyl-3-methanesulfonylamino-2-methoxyphenyl-carbamoyl)-2-methyl-phenyl]-1H-1,2,3-triazole-4-carboxylic acid amide] returned a melting point greater than 250 °C.
In turn, `COc1c(NC(=O)c2ccc(C)c(-n3nnc(C(=O)NCC(C)(C)C)c3N)c2)cc(C(C)(C)C)cc1NS(C)(=O)=O` [Example 68, 5-amino-1-[5-(5-tert-butyl-3-methanesulfonylamino-2-methoxy-phenylcarbamoyl)-2-methyl-phenyl]-1H-1,2,3-triazole-4-carboxylic acid (2,2-dimethyl-propyl)-amide] had a melting point of 189 to 193 °C.
